Experiment [1] has as its system Staphylococcus aureus. The experiment is described as follows: Synergistic antibacterial activity against Staphylococcus aureus ATCC 29213 assessed as fractional inhibitory concentration index incubated for 24 hrs in presence of meropenem by checkerboard assay. Type of experiment: functional.
In experiment [2] the test system is Staphylococcus aureus. The experiment is described as follows: Antibacterial activity against Staphylococcus aureus ATCC BAA -1556 assessed as tetracycline MIC incubated for 24 hrs by microbroth dilution assay. Type of experiment: functional.
Experiment [3] has as its system Staphylococcus aureus. The experiment is described as follows: Synergistic antibacterial activity against methicillin resistant Staphylococcus aureus ATCC BAA -1556 assessed as fractional inhibitory concentration index incubated for 24 hrs in presence of vancomycin by checkerboard assay. Type of experiment: functional.
In experiment [4] the test system is Klebsiella pneumoniae. The experiment is described as follows: Synergistic antibacterial activity against Klebsiella pneumoniae ATCC BAA 1705 assessed as fractional inhibitory concentration index incubated for 24 hrs in presence of levofloxacin by checkerboard assay. The class given is functional.
Experiment [5] deals with Staphylococcus aureus. In words: Bactericidal activity against methicillin resistant Staphylococcus aureus ATCC BAA 1556 assessed as reduction in bacterial viability at MIC measured after 2 hrs by Time kill assay. The class given is functional, organism-based.
Experiment [6] concerns Escherichia coli. The experiment is described as follows: Bactericidal activity against Escherichia coli ATCC BAA 2452 assessed as reduction in bacterial growth at MIC measured after 8 hrs by Time kill assay. The class given is functional, organism-based.
For experiment [7], the system named is Klebsiella pneumoniae. In words: Synergistic antibacterial activity against Klebsiella pneumoniae ATCC BAA 1705 assessed as fractional inhibitory concentration index incubated for 24 hrs in presence of tobramycin by checkerboard assay. Type of experiment: functional.
For experiment [8], the system named is Pseudomonas aeruginosa. In words: Synergistic antibacterial activity against Pseudomonas aeruginosa ATCC 27883 assessed as fractional inhibitory concentration index incubated for 24 hrs in presence of polymyxin B by checkerboard assay. Type of experiment: functional.
In experiment [9] the test system is Staphylococcus aureus. The experiment is described as follows: Antibacterial activity against Staphylococcus aureus ATCC BAA -1556 assessed as tobramycin MIC incubated for 24 hrs by microbroth dilution assay. Type of experiment: functional. On the technique in general: Broth dilution looks for growth in wells or tubes with falling amounts of substance.

Experimental findings from ChEMBL document CHEMBL5154823, “Amphiphilic cyclic peptide [W4KR5]-Antibiotics combinations as broad-spectrum antimicrobial agents” (Eur J Med Chem, 2022) are described below.

The source made the active and inactive calls. The calls are words filed in the database; no cut-off is given here. Where a SMILES comes first, the peptide text is derived from it.

By MIC is commonly meant the lowest concentration found to suppress growth. As for `N=C(N)NCCC[C@@H]1NC(=O)[C@H](CCCNC(=N)N)NC(=O)[C@H](CCCNC(=N)N)NC(=O)[C@H](CCCNC(=N)N)NC(=O)[C@H](Cc2c[nH]c3ccccc23)NC(=O)[C@H](Cc2c[nH]c3ccccc23)NC(=O)[C@H](Cc2c[nH]c3ccccc23)NC(=O)[C@H](Cc2c[nH]c3ccccc23)NC(=O)[C@H](CCCCN)NC(=O)[C@H](CCCNC(=N)N)NC1=O` (cyclo(KWWWWRRRRR)), the “fractional inhibitory concentration index (FICI)” value in experiment [1] is on record as 0.5; in [3], 0.5; in experiment [4] it was 0.375; in experiment [7] it was 0.375; in experiment [8] it was 0.375. Further, the minimal inhibitory concentration (MIC) in [2] and in experiment [9] was 0.0625 µg/mL in each case. In addition, the outcome in experiment [5] and in experiment [6] was Active.
